Test results reported in ChEMBL document CHEMBL1143537, “Discovery, synthesis and biological evaluation of novel glucokinase activators” (Bioorg Med Chem Lett, 2005).

System: not listed separately
Assay: Clearance value of the compound
Assay type: ADME, organism-based
Conditions: rat, in vivo

clearance	Structure (SMILES)
3.8 mL/min/kg	CC(C)Oc1cc(OCCc2ccsc2)cc(C(=O)Nc2ccc(C(=O)O)cn2)c1

System: not listed separately
Assay: Volume of distribution of the compound
Assay type: ADME
Conditions: rat; read-out: Activity

Vd	Structure (SMILES)
0.3 L/kg	CC(C)Oc1cc(OCCc2ccsc2)cc(C(=O)Nc2ccc(C(=O)O)cn2)c1

System: not listed separately
Assay: Half life value of the compound
Assay type: ADME
Conditions: rat

half-life	Structure (SMILES)
54 min	CC(C)Oc1cc(OCCc2ccsc2)cc(C(=O)Nc2ccc(C(=O)O)cn2)c1

Molecular target: T1, Hexokinase-4 (Homo sapiens, UniProt P35557)
T1 sequence (P35557 whole entry): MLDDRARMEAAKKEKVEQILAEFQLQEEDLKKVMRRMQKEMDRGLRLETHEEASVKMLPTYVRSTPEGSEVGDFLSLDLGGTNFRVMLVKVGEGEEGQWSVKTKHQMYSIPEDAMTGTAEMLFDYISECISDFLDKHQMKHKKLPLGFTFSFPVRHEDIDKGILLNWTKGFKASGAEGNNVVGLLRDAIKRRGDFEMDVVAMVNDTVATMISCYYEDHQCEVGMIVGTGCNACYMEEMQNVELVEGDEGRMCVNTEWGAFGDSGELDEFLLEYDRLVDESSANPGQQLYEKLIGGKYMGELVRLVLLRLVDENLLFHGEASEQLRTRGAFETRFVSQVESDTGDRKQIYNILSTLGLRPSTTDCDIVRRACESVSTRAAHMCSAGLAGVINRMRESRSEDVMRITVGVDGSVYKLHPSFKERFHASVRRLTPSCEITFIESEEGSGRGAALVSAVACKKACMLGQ
Assay: Potency in Glucokinase activation assay
Conditions: not given

Structure (SMILES)	EC50
CC(C)Oc1cc(OCc2ccccc2F)cc(C(=O)Nc2ccc(C(=O)O)cn2)c1	0.1 µM
O=C(O)c1ccc(NC(=O)c2cc(OCc3ccccc3)cc(OCc3ccccc3)c2)nc1	0.4 µM
CC(C)Oc1cc(OCCCc2ccccc2)cc(C(=O)Nc2ccc(C(=O)O)cn2)c1	0.42 µM
CC(C)Oc1cc(OCC2CCCC2)cc(C(=O)Nc2ccc(C(=O)O)cn2)c1	0.65 µM
CC(C)Oc1cc(OCc2ccccc2)cc(C(=O)Nc2ccc(C(=O)O)cn2)c1	0.29 µM
CC(C)Oc1cc(OCCC2CCCC2)cc(C(=O)Nc2ccc(C(=O)O)cn2)c1	0.17 µM
O=C(O)c1ccc(NC(=O)c2cccc(OCc3ccccc3Cl)c2)nc1	0.91 µM
CC(C)Oc1cc(OCCc2ccccc2)cc(C(=O)Nc2ccc(C(=O)O)cn2)c1	0.13 µM
O=C(O)c1ccc(NC(=O)c2cc(OCc3ccccc3F)cc(OCc3ccccc3F)c2)nc1	0.09 µM
CC(C)COc1cc(OC(C)C)cc(C(=O)Nc2ccc(C(=O)O)cn2)c1	0.57 µM

Continued, values first:

EC50	Structure (SMILES)
3.2 µM	CSc1ccc(OCc2ccccc2)c(/C=C/c2ccc(C(=O)O)cn2)c1
> 10 µM	COc1cc(OC)cc(OCc2ccc(C(=O)O)cn2)c1
> 10 µM	O=C(O)c1ccc(OCc2cc(OCc3ccccc3)cc(OCc3ccccc3)c2)nc1
> 10 µM	O=C(O)c1ccc(NC(=O)c2cccc(OCc3ccccc3Cl)c2OCc2ccccc2Cl)nc1
1.78 µM	CC(C)Oc1cc(OCCc2ccncc2)cc(C(=O)Nc2ccc(C(=O)O)cn2)c1
1.26 µM	CC(C)Oc1cc(OCCc2cccnc2)cc(C(=O)Nc2ccc(C(=O)O)cn2)c1
> 10 µM	O=C(O)c1ccc(CCc2cc(OCc3ccccc3)cc(OCc3ccccc3)c2)nc1
1.33 µM	CC(C)Oc1cc(OCCC2CCOCC2)cc(C(=O)Nc2ccc(C(=O)O)cn2)c1
> 10 µM	O=C(O)c1ccc(C(=O)Nc2cc(OCc3ccccc3)cc(OCc3ccccc3)c2)nc1
> 10 µM	O=C(O)c1ccc(NC(=O)c2ccccc2OCc2ccccc2)nc1
4.22 µM	CSc1ccc(OCc2ccccc2)c(C(=O)Nc2ccc(C(=O)O)cn2)c1
> 10 µM	CSc1ccc(OCc2ccccc2)c(NC(=O)c2ccc(C(=O)O)cn2)c1
